Test results reported in patent US12064405B2, “Immunosuppressant comprising TSAHC or a pharmaceutically acceptable salts thereof as an active ingredient” (Seoul National University R&DB Foundation, priority 2020, dated 2024).

Columns and labels:
[1] = target: T1, TM4SF5 and IL6-Rα (Homo sapiens, UniProt O14894); experiment: Binding of TM4SF5 and IL6-Rα (streptavidin-agarose precipitation, Western blotting); type: cell-based; conditions: hepatic epithelial cells expressing TM4SF5-Strep; FIG. 10
T1 construct: expressed in transfected cells
T1 sequence (O14894 1-197): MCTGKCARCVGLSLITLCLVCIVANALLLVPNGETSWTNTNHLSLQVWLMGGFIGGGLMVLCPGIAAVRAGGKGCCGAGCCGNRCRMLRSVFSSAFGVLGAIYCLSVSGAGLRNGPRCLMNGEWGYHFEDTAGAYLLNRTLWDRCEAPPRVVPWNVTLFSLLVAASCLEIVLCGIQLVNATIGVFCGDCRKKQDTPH
Method: Hepatic epithelial cells were infected with an empty vector (EV) or lentivirus expressing TM4SF5, and TSAHC was not treated (−) or treated (+) thereto. A cell extract was obtained, and TM4SF5-Strep was precipitated using strepavidin-agarose beads, and then Western blotting was performed with the IL-6 receptor, IL-6Rα antibody.

[2] = system: SNU449-TM4SF5-HA cell line; experiment: RNA-Seq / mRNA-Seq of inflammatory cytokine and chemokine expression in TM4SF5-expressing hepatic epithelial cells; type: cell-based, human; conditions: 10 μM TSAHC for 24 hours
Method: To confirm whether the TSAHC treatment affects the expression and secretion of inflammatory cytokines and chemokines in TM4SF5 expression-dependent hepatic epithelial cells, RNA-Seq analysis and mRNA-Seq analysis comparing the mRNA expression were performed in SNU449-HA cell line in which the control vector was safely injected into SNU449, SNU449-TM4SF5-HA cell line injected with TM4SF5 expression vector, and SNU449-TM4SF5-HA cell line treated with 10 μM of TSAHC for 24 hours using the liver tissue of Tg^TM4SF5 overexpressing TM4SF5 or Tm4sf5^−/− KO C57BL/6 mice in Macrogen, Inc. (Seoul, Korea).
The experimental procedure for mRNA-Seq analysis included the followings. […] RNA library was constructed through qPCR using an agilent technologies 2100 bioanalyzer according to qPCR quantification protocol guide. Quality control analysis of the raw reads obtained through sequencing was performed. […] Aligned reads were generated after mapping the pre-treated reads to reference genome using HISAT2 program considering splice. Transcript assembly was performed through the String Tie program using paired information of the aligned reads based on the reference. The expression level obtained through the transcript quantification of each sample was calculated as a normalization value considering the transcript length and depth of coverage. […]

[3] = system: mouse model in which liver fibrosis is induced by the treatment of CCl4; experiment: CCl4-induced liver damage, inflammation and fibrosis mouse model with TSAHC treatment; type: in vivo; conditions: CCl4-treated mice, 4 weeks
Method: In a mouse animal model that can be accompanied by cell damage and inflammation when liver fibrosis is induced by the treatment of CCl4, the animal groups periodically treated (+) or not treated (−) with TSAHC during the CCl4 treatment were obtained. The body weight during 4 weeks of the treatment and the liver tissue weight after 4 weeks were calculated as a ratio (liver/body weight), or the ALT liver levels were measured from blood samples. The liver tissue was obtained and Tm4sf5 mRNA was measured by qRT-PCR.
In an animal model treated with CCl4 to induce liver fibrosis, the animal groups periodically treated (+) or not treated (−) with TSAHC during the CCl4 treatment were obtained. After 4 weeks of the treatment, the liver tissue was obtained and H&E and Masson's trichrome staining was performed.
In an animal model treated with CCl4 to induce liver fibrosis, the animal groups periodically treated (+) or not treated (−) with TSAHC during the CCl4 treatment were obtained. After 4 weeks of the treatment, the liver tissue was obtained and immunostaining was performed for Ccl20 and Cxcl10.
In a mouse model that can be accompanied by cell damage and inflammation when liver fibrosis is induced by CCl4 treatment, the animal groups periodically treated (+) or not treated (−) with TSAHC during the CCl4 treatment were obtained. After 4 weeks of the treatment, the liver tissue was obtained and immunostaining was performed for F4/80, a macrophage marker.
In a mouse model that can be accompanied by cell damage and inflammation when liver fibrosis is induced by CCl4 treatment, the animal groups periodically treated (+) or not treated (−) with TSAHC during the CCl4 treatment were obtained. After 4 weeks of the treatment, the liver tissue was obtained and immunostaining was performed for α-SMA indicating the activation of hepatic stellate cells.

[4] = system: Hep3B cell line expressing TM4SF5; experiment: qRT-PCR of CCL20 and CXCL10 mRNA in IL-6-treated Hep3B cell line; type: cell-based, human; conditions: IL-6 100 ng/ml, TSAHC 0.1 or 0.5 μM for 24 hours
Method: Hep3B cell line expressing TM4SF5 that was not treated with IL-6 or treated at a concentration of 100 ng/ml was treated with or without TSAHC at a concentration of 0.1 or 0.5 μM for 24 hours. Then, qRT-PCR was performed using the cells.
Specifically, to perform qRT-PCR, the cells or tissues were disrupted using Qiazol (Qiagen, USA), to which chloroform was added, and the upper […] layer was separated by centrifugation at 4° C., 12,000×g for 15 minutes. RNA was precipitated by adding isopropanol to the separated […] layer, followed by washing with 70% ethanol. RNA pellet was isolated by centrifugation at 7,500×g for 5 minutes, ethanol was evaporated for 10 minutes, and dissolved in 30 μl of DEPC-water. After removing gDNA from the dissolved RNA, it was reverse transcribed using a reverse transcription kit (Toyobo, Japan) to obtain cDNA. The expression was measured by real-time PCR (Biorad, USA) with the obtained cDNA using 2×Eva green master mix (Labopass, Korea) and 0.4 μM forward/reverse primers. The expression amount was calculated using the modified delta-delta Ct method of Pfaffl.

[5] = system: cell lines expressing TM4SF5; experiment: qRT-PCR of M1-type macrophage chemokines/cytokines CCL2, TNF-α, IL-6, IL-1β; type: cell-based; conditions: cell line expressing TM4SF5, LPS and IFN-γ
Method: Cell lines not expressing TM4SF5 (EV) or cell lines expressing thereof (TM4SF5) were treated (+) or not treated with LPS and IFN-γ, treated (+) or not treated with 2-DG (2-Deoxy-D-glucose) as a drug for inhibiting glycolysis at a given concentration, and additionally treated (+) or not treated with TSAHC (−). Then, the mRNA expression levels of CCL2, TNF-α, IL-6, and IL-1β, the chemokines/cytokines indicating the activation of M1-type macrophages, were confirmed by qRT-PCR.

[6] = system: cells expressing TM4SF5; experiment: Activation of glycolytic function (acidification of extracellular solution, Seahorse); type: cell-based
Method: The cells expressing TM4SF5 were treated with vehicle, a negative control compound (4′-methoxy-4-dihydroxychalcone) or TSAHC. Then, the degree of activation of glycolytic function was measured by measuring the acidification of the extracellular solution due to glycolysis while additionally adding glucose at various concentrations using Seahorse equipment.

Cc1ccc(S(=O)(=O)Nc2ccc(C(=O)/C=C/c3ccc(O)cc3)cc2)cc1 [TSAHC, 4′-(p-toluenesulfonylamido)-4-hydroxychalcone]
reduced: CCL20 mRNA expression level increased by IL-6 ([4]; FIG. 4A) | CXCL10 mRNA expression level increased by IL-6 ([4]; FIG. 4B)
suppressed: expression and secretion of cytokines/chemokines (IL6, IL1β, TNFα, CXCL1, CXCL2, CXCL3, CXCL6, CXCL8, CCL2, CCL5, CCL20, CXCL10, CCR10) according to TM4SF5 expression [2]
inhibited: binding of TM4SF5 and IL6-Rα [1]
not changed: glycolysis of the cells not expressing TM4SF5 (EV) ([6]; EV cell line, FIG. 8B)
decreased: Tm4sf5 mRNA expression level in liver tissue ([3]; FIG. 19A) | liver tissue weight and body weight (ratio liver/body weight) ([3]; FIG. 19C) | collagen accumulation (Masson's trichrome staining) ([3]; FIG. 20) | degree of liver tissue damage / irregular cell composition (H&E staining) ([3]; FIG. 20) | Ccl20 mRNA expression level in liver tissue ([3]; FIG. 21) | Cxcl10 mRNA expression level in liver tissue ([3]; FIG. 21) | F4/80 mRNA expression in liver tissue ([3]; FIG. 22B) | α-SMA mRNA expression in liver tissue ([3]; FIG. 23B) | ALT level ([3]; blood samples, FIG. 19B) | CCL2 mRNA expression level ([5]; FIG. 11A) | TNF-α mRNA expression level ([5]; FIG. 11B) | IL-6 mRNA expression level ([5]; FIG. 11C) | IL-1β mRNA expression level ([5]; FIG. 11D) | glycolytic function of cells expressing TM4SF5 ([6]; various concentrations of glucose added, FIG. 8C)
